pIC50: −log10 of the molar value.
Experiments:
[1] = tested on: PAN induced glomerular kidney injury; experiment: Puromycin aminonucleoside (PAN)-induced glomerular injury in rats; assay type: in vivo, Sprague-Dawley rats; conditions: PAN-injured rats
Text: The objective of this study is to evaluate the dose-dependent effects of compound 100 on PAN induced glomerular kidney injury as indexed by albuminuria. Eighty (80), male Sprague-Dawley rats weighing approximately 125-150 g and approximately 5-6 weeks of age were acquired from Charles River. They were fed a standard chow diet (Harlan 8640), housed under standard conditions, and allowed to acclimate for at least 5 days prior to study inception. On D-2, rats were placed into weight-matched treatment groups and were placed, individually housed, into metabolic cages for the balance of the study. A 24 hour baseline (Day 0) urine was collected followed by a baseline blood collection via conscious tail venous puncture. Rats were then administered vehicle or test article. Two (2) hours following administration of vehicle or test agent on Day 0, rats received an administration of (5 ml/kg, s.c.) vehicle (sterile saline) or puromycin aminonucleoside (PAN; challenge agent; 75 mg/kg) dissolved in vehicle. Intermittent (Day 4, 7 and 10) 24 hour urine volumes were determined and samples (4 samples/animal/time point; 0.5 ml/sample) were obtained. Additionally, intermittent (Day 4, 7 and 10) blood samples were collected via conscious tail venous puncture 2 hours±1 minute post-AM dose. Immediately following the last blood collection, rats were anesthetized with isoflurane, tissues harvested, and animals sacrificed. Endpoint kidney weights and indices were obtained. Urine samples were immediately flash-frozen in liquid N2 and stored at −80° C. until analyzed. Whole blood samples collected on K3EDTA were processed appropriately for the production of plasma for PK measurements.

[2] = tested on: AT1R transgenic rat model of FSGS; experiment: AT1R transgenic rat model of FSGS; assay type: in vivo; conditions: AT1R transgenic rats, UniNX and AngII infusion, orally once daily 3 mg/kg or 10 mg/kg, up to 3 weeks
Procedure: The AT1R transgenic rat model of FSGS is characterized by podocyte-specific expression of human AT1R. […] See Zhou et al., Science (2017), vol. 358 (6368), 1332-1336. In the present study, pathophysiology in AT1R transgenic rats was accelerated with unilateral nephrectomy (UniNX) and minipump AngII infusion. Compound 100 was dosed orally once daily at 3 mg/kg or 10 mg/kg, and the urine protein creatinine ratio was determined at -1, 0, 1, 2, and 3 weeks of treatment. […] UniNX, AngII […], and compound 100 […] occurred at the time points indicated.

TRPC5 = biological target: T1, TRPC5 (Homo sapiens, UniProt Q9UL62); experiment: TRPC5 activity assay (FLIPR calcium fluorescence, Riluzole stimulation); assay type: cell-based; conditions: HEK-TREx hTRPC5 cells, 30 μM Riluzole stimulation; read-out: TRPC5 (IC50 class)
T1 construct: expressed in transfected cells
T1 sequence (Q9UL62 1-973): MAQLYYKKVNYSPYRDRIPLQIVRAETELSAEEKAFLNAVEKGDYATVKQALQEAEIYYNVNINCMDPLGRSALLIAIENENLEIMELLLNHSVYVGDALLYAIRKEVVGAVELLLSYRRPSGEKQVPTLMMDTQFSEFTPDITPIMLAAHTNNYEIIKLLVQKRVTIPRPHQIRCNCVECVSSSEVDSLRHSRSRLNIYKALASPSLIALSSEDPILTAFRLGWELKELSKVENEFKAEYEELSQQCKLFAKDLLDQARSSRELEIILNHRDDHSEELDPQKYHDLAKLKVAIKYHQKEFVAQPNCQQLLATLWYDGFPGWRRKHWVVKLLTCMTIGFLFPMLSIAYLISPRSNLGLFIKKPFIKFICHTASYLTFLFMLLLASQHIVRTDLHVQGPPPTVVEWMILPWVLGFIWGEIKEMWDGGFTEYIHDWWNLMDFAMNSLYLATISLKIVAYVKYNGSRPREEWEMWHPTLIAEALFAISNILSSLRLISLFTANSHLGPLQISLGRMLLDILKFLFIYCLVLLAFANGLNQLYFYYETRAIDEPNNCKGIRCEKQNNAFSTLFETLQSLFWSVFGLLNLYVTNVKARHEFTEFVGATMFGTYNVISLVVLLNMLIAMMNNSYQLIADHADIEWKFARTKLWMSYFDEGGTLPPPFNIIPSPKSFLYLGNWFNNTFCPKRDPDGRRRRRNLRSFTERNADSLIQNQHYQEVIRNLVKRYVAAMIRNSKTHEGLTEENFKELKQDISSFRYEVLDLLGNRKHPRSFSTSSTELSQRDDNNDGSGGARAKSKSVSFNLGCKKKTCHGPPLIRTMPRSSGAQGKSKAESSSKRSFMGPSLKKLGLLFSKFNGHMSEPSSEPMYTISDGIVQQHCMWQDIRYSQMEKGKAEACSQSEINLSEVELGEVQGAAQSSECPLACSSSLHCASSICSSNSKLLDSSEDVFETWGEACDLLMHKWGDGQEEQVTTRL
Procedure: ICLN-1633 cells (HEK-TREx hTRPC5) expressing TRPC5 were generated as follows. Commercially available HekTrex-293 cells were seeded at 0.7×10^6 cells/well in a 1×6-well plate 24 hrs prior to transfection using 2 mL cell growth media containing no antibiotics (1× DMEM/high glucose (Hyclone #SH30022.02); 10% fetal bovine serum (Sigma) 2 mM sodium pyruvate, 10 mM HEPES). […] On day 2, 2 μg of plasmid DNA plus 6 μl of Xtreme-GENE HP reagent in Optimem (200 μl total volume) was prepared and incubated for 15 min at room temperature. This plasmid solution was then gently overlayed dropwise onto each well and the plate was gently swirled to mix complex with the media for approximately 30 seconds. Transfected cells were incubated at 37° C. in a 10%/CO2 incubator for 24 hrs. The transfected cells were harvested and transferred into 2×150 mm dishes containing cell growth media with no antibiotics at 37° C.
The next day selection was initiated to generate a stable pool by adding cell growth media containing 150 μg/mL Hygromycin and 5 μg/mL Blasticidin and cells were allowed to grow. Media with the selection agent was changed every 1-2 days as needed to remove dead cells. After 7 days, the hygromycin concentration was reduced to 75 μg/mL and cells growth was allowed to continue.
Single clones were selected as follows. The stable pool was diluted to 10 cells/mL and seeded (100 μl/well) into 24×96 well plates (˜1 cell/well) and allowed to grow for 7 days in cell growth media. Fresh media (100 μl) was added and the cells allowed to grow for another 1-2 weeks and then stored frozen or used immediately.
10-point dose response curves were generated using the Echo-550 acoustic dispenser. Compound source plates were made by serially diluting compound stocks to create 10 mM, 1 mM, and 0.1 mM solutions in DMSO into Echo certified LDV plates. The Echo then serially spotted 100%/DMSO stock solutions into source dose response plates to generate a 4-fold dilution scheme. 100%0/DMSO was added to the spotted dose response plates to bring the final volume to 5 μl. 300 nl of the dose response stock plate was then spotted into pre-incubation and stimulation assay plates. 50 μl of pre-incubation buffer and 100 μl of stimulation buffer was then added to the plates resulting in a final assay test concentration range of 30 μM to 0.0001 μM with a final DMSO concentration of 0.3%.
Human ICLN-1633 cells expressing were plated onto 384 well, black PDL-coated microplates and maintained in TRPC5 growth media the day prior to use for experiments. TRPC5 expression was induced by the application of 1 μg/mL tetracycline at the time of plating. […] Cells are incubated at room temperature, protected from light, for 60-90 minutes. After the incubation period, the dye is removed and replaced with 10 μl of EBSS. Cell, pre-incubation and stimulation plates are loaded onto the FLIPR-II and the assay is initiated. The FLIPR measures a 10 second baseline and then adds 10 μl of 2X compounds (or controls). Changes in fluorescence are monitored for an additional 5 minutes. After the 5 minute pre-incubation, 20 μl of 2X Riluzole (with 1X compound or controls) is added to the cell plate. The final Riluzole stimulation concentration in the assay is 30 μM. After the Riluzole addition, changes in fluorescence are monitored for an additional 5 minutes.
Compound modulation of TRPC5 calcium response was determined as follows. After the Englerin A, fluorescence was monitored for a 5-minute period. The maximum relative fluorescence response (minus the control response of 1 μM of an internal control compound known to maximally block TRPC5 calcium response, the “REF INHIB” in the formula below) was captured and exported from the FLIPR.
Compound effect is calculated as % inhibition using the following formula:
[formula] wherein “RFU” is the relative fluorescent units.

SMILES	pIC50 (TRPC5)	also measured
O=c1[nH]ncc(N2CCc3c(ncnc3Oc3ccc(F)cc3C(F)(F)F)C2)c1Cl [Compound 100, 4-chloro-5-[4-[4-fluoro-2-(trifluoromethyl)phenoxy]-5H,6H,7H,8H-pyrido[3,4-d]pyrimidin-7-yl]-2,3-dihydropyridazin-3-one]	–	urinary albumin excretion ([1]; 30 mg/kg once daily (QD), at 10 days): Significant reductions; urinary albumin excretion ([1]; 30 mg/kg twice daily (BID), at 7 and 10 days): Significant reductions; urine protein creatinine ratio [2]: efficacious
O=c1[nH]ncc(N2CCc3c(nc([C@H](O)CO)nc3Oc3ccc(F)cc3C(F)(F)F)C2)c1Cl (single isomer, unassigned) [Compound 137]	> 7.30	–
CC1Cc2c(ncnc2Oc2ccc(F)cc2Cl)CN1c1cn[nH]c(=O)c1Cl (single isomer, unassigned) [Compound 117a]	< 6.00	–
NC(=O)c1ncn([C@@H]2O[C@H](CO)[C@@H](O)[C@H]2O)c1O [Mizoribine, reference compound]	–	albuminuria ([1]; positive control compound): efficacious in reducing albuminuria
O=c1[nH]ncc(N2CCc3c(nc([C@@H](O)CO)nc3Oc3ccc(F)cc3C(F)(F)F)C2)c1Cl (single isomer, unassigned) [Compound 135]	> 7.30	–
CC(c1ccc(F)cc1C(F)(F)F)c1ncnc2c1CCN(c1cn[nH]c(=O)c1Cl)C2 (single isomer, unassigned) [Compound 126, 4-Chloro-5-[4-[(1 S)-1-[4-fluoro-2-(trifluoromethyl)phenyl]ethyl]-5H,6H,7H,8H-pyrido[3,4-d]pyrimidin-7-yl]-2,3-dihydropyridazin-3-one]	> 7.30	–
CC(O)c1nc2c(c(Oc3ccc(F)cc3C(F)(F)F)n1)CCN(c1cn[nH]c(=O)c1Cl)C2 (single isomer, unassigned) [Compound 129, 4-Chloro-5-[4-[4-fluoro-2-(trifluoromethyl)phenoxy]-2-[(1 S)-1-hydroxyethyl]-5H,6H,7H,8H-pyrido[3,4-d]pyrimidin-7-yl]-2,3-dihydropyridazin-3-one]	> 7.30	–
CC(c1ccc(F)cc1C(F)(F)F)c1ncnc2c1CCN(c1cn[nH]c(=O)c1Cl)C2 (single isomer, unassigned) [Compound 126a]	6.30 to 7.30	–
CC(O)c1nc2c(c(Oc3ccc(F)cc3C(F)(F)F)n1)CCN(c1cn[nH]c(=O)c1Cl)C2 (single isomer, unassigned) [Compound 130]	> 7.30	–
